Reference: article PMC11683478, “Bioprospecting of culturable marine biofilm bacteria for novel antimicrobial peptides” (iMeta, 2024)
Where a SMILES comes first, the peptide text is derived from it. Where no end group is shown, it is not given here.

Tests used:
[1] = system: human normal colon epithelial cells (NCM-460); assay type: cell-based; conditions: 48 h
Method: Human normal colon epithelial cells (NCM‐460) were purchased from the BeNa Culture Collection. Cytotoxicity was measured using the 3‐[4,5‐dimethylthiazol‐2‐yl]−2,5 diphenyl tetrazolium bromide (MTT) assay. The NCM‐460 cells were cultured in the Dulbecco's modified Eagle's medium (DMEM)‐H complete culture medium (90% DMEM‐H, 10% FBS, 10,000 U/mL penicillin, and 10,000 μg/mL streptomycin) to logarithmic growth phase. The suspension of cells was prepared at 10^5 cells/100 μL/well in a 96‐well plate. The peptides selected for the assay were dissolved in the DMEM‐H medium to prepare a 25 mg/mL stock solution, diluted for multiple gradients of 4–512 μg/mL. Afterwards, the peptides that had been diluted (100 μL/well) were introduced into the cells residing on a 96‐well plate. The DMEM‐H medium served as the blank group, the cell suspension as the control group, and the cell suspension combined with the peptide as the experimental group. Each group was conducted in three separate replicates. After 48 h of culture, 10 μL MTT was added to each well and incubated further at 37°C for 4 h. Then 100 μL Formazan solution was added and incubated further at 37°C for 4 h until all the purple crystals were dissolved. The absorbances were measured at OD570. Cell viability was determined by calculating cell viability using the following formula. Cell viability=OD570(experimental)−OD570(blank)/OD570(control)−OD570(blank)×100%.
Then, the CC50 value of each AMP molecule was calculated using an online tool: https://www.aatbio.com/tools/ic50-calculator.

sheep red blood cells = conditions: red cells of sheep, 1 h
Method: Freshly collected sheep blood was centrifuged at 3000 rpm for 10 min, and the supernatant was removed. The pellet was washed and resuspended with normal saline water to produce a 2% blood cell solution. Then, 400 μL of peptide solution was added to 100 μL of 2% blood cell solution to achieve final peptide concentrations of 8, 16, 32, 64, and 128 μg/mL. Normal saline water and Triton X‐100 normal saline solution (2%) were used as negative and positive controls, respectively. The samples were incubated in a water bath at 37°C for 1 h, followed by centrifugation at 3000 rpm for 10 min. Then, 200 μL of the supernatant was transferred to a 96‐well plate, and OD values were measured at a wavelength of 545 nm. The hemolysis rate of each sample was calculated using the following formula: Hemolysis ratio=OD545(experimental)−OD545(negative control)/OD545(positive control)−OD545(negative control)×100%.

[2] = system: eight pathogenic bacterial strains; experiment: MIC, panel statement; assay type: cell-based; conditions: panel of eight strains, CAMHB, 37°C
Method: Eight bacterial strains were utilized in the antibacterial experiment. S. aureus ATCC 12600, B. subtilis ATCC 23857, E. coli ATCC 11775, and A. baumannii ATCC 19606 were purchased from Shanghai Beinuo Biology. M. luteus ATCC 4698 and S. bongori ATCC43975 were purchased from Shanghai Beisi Biotechnology. V. owensii ems001 and V. alginolyticus xv22 from the intestines of diseased shrimps were isolated in our laboratory. All strains were cultured in the cation‐adjusted Mueller‐Hinton broth (CAMHB) at 37°C to the logarithmic growth phase (OD600 = 0.5). Then, bacteria were gradient‐diluted using fresh CAMHB to a bacterial density of 5 × 10^5 CFU/mL. Antibacterial experiments were performed in a 96‐well plate with 200 μg/mL final peptide concentration. Four experimental groups were set up, including a blank control (200 μL CAMHB), a negative control (180 μL CAMHB plus 20 μL peptide), a positive control (180 μL bacterial culture plus 20 μL ultrapure water), and an experimental group (180 μL bacterial culture plus 20 μL peptide). Three biological replicates were conducted for each group, and OD600 values were measured after incubation at 37°C for 12 h. Every observed value was removed from the blank control group value. […] The MIC of a peptide against a bacterium was determined as the minimum peptide concentration at which there was no visible bacterial growth.

[3] = system: Staphylococcus aureus ATCC 12600; experiment: Antibacterial screen at 200 μg/mL (cell density vs control); assay type: cell-based; conditions: peptide 200 μg/mL, CAMHB, 5 × 10^5 CFU/mL, 37°C, 12 h, OD600; control (no AMP) = 1; three biological replicates
Summary of the method: (§1)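 CAMHB, 37°C; inoculum 5 × 10^5 CFU/mL from log phase; peptide 200 μg/mL final; 12 h; OD600 read, blank- and peptide-background-subtracted; n = 3, t-test vs untreated growth control. MIC = lowest peptide concentration with no visible growth.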

[4] = system: Salmonella bongori ATCC 43975; experiment: as above; assay type: cell-based; conditions: peptide 200 μg/mL, CAMHB, 5 × 10^5 CFU/mL, 37°C, 12 h, OD600; control (no AMP) = 1; three biological replicates
Summary of the method: as §1

[5] = system: Acinetobacter baumannii ATCC 19606; experiment: as above; assay type: cell-based; conditions: peptide 200 μg/mL, CAMHB, 5 × 10^5 CFU/mL, 37°C, 12 h, OD600; control (no AMP) = 1; three biological replicates
Summary of the method: as §1

[6] = system: Escherichia coli ATCC 11775; experiment: as above; assay type: cell-based; conditions: peptide 200 μg/mL, CAMHB, 5 × 10^5 CFU/mL, 37°C, 12 h, OD600; control (no AMP) = 1; three biological replicates
Summary of the method: as §1

[7] = system: Bacillus subtilis ATCC 23857; experiment: as above; assay type: cell-based; conditions: peptide 200 μg/mL, CAMHB, 5 × 10^5 CFU/mL, 37°C, 12 h, OD600; control (no AMP) = 1; three biological replicates
Summary of the method: as §1

[8] = system: Vibrio alginolyticus xv22; experiment: as above; assay type: cell-based; conditions: peptide 200 μg/mL, CAMHB, 5 × 10^5 CFU/mL, 37°C, 12 h, OD600; control (no AMP) = 1; three biological replicates
Summary of the method: as §1

[9] = system: Micrococcus luteus ATCC 4698; experiment: as above; assay type: cell-based; conditions: peptide 200 μg/mL, CAMHB, 5 × 10^5 CFU/mL, 37°C, 12 h, OD600; control (no AMP) = 1; three biological replicates
Summary of the method: as §1

Vibrio owensii ems001 = experiment: as above; assay type: cell-based; conditions: peptide 200 μg/mL, CAMHB, 5 × 10^5 CFU/mL, 37°C, 12 h, OD600; control (no AMP) = 1; three biological replicates
Summary of the method: as §1

Compound | Cytotoxicity CC50 [1] [µg/mL] | Hemolysis ratio (%) at 8μg/mL (sheep red blood cells) [%] | Hemolysis ratio (%) at 16μg/mL (sheep red blood cells) [%] | Hemolysis ratio (%) at 32μg/mL (sheep red blood cells) [%] | Hemolysis ratio (%) at 128μg/mL (sheep red blood cells) [%] | Hemolysis ratio (%) at 64μg/mL (sheep red blood cells) [%] | MIC against nearly all strains [2] [µg/mL] | cell density relative to control, S. aureus ATCC 12600 [3] | cell density relative to control, S. bongori ATCC 43975 [4] | cell density relative to control, A. baumannii ATCC 19606 [5] | cell density relative to control, E. coli ATCC 11775 [6] | cell density relative to control, B. subtilis ATCC 23857 [7] | cell density relative to control, V. alginolyticus xv22 [8] | cell density relative to control, M. luteus ATCC 4698 [9] | cell density relative to control, V. owensii ems001 (Vibrio owensii ems001)
MRIVMCRIGGRL [Cand-102] | 5.897 | 6.842 | 37.647 | 54.569 | 41.034 | – | – | – | – | – | – | – | – | – | –
CSCC[C@H](N)C(=O)N[C@@H](CCCCN)C(=O)N1CCC[C@H]1C(=O)N[C@@H](CS)C(=O)N[C@@H](CCCNC(=N)N)C(=O)N[C@@H](CCCCN)C(=O)N[C@@H](C)C(=O)N[C@@H](CC(C)C)C(=O)N[C@@H](Cc1c[nH]c2ccccc12)C(=O)N[C@@H](CO)C(=O)N[C@H](C(=O)N[C@@H](Cc1c[nH]c2ccccc12)C(=O)N[C@@H](CCCCN)C(=O)N[C@@H](CCCNC(=N)N)C(=O)N[C@@H](CCCCN)C(=O)N[C@@H](CS)C(=O)N[C@@H](CCCNC(=N)N)C(=O)N[C@@H](Cc1c[nH]cn1)C(=O)N[C@@H](CCC(=O)O)C(=O)O)C(C)C [Cand-196] (H-MKPCRKALWSVWKRKCRHE-OH) | 18.881 | 1.481 | 2.356 | 4.680 | 13.102 | 5.976 | – | – | – | – | – | – | – | – | –
MRCSLKKIISTFFS [Cand-71] | 23.841 | 6.779 | 7.213 | 15.000 | 19.534 | – | – | – | – | – | – | – | – | – | –
MKKCRRKVLFGLWRRN [Cand-77] | 45.263 | 3.431 | 4.302 | 5.822 | 12.471 | 8.387 | ≤ 32 | – | – | – | – | – | – | – | –
MVAVMKKLLLKYALK [Cand-82] | 10.864 | 2.395 | 3.214 | 3.498 | – | 2.486 | – | – | – | – | – | – | – | – | –
MGTYPKVGNSHWKR [Cand-69, chemically synthesized candidate AMP predicted from marine biofilm bacteria] | – | – | – | – | – | – | – | 0.819 | 0.886 | 0.889 | 1 | 1 | 1 | 1 | 1
MYSVWPKSLRSVAGRGPKHRC [Cand-139, chemically synthesized candidate AMP predicted from marine biofilm bacteria] | – | – | – | – | – | – | – | 0 | 0.426 | 0.959 | 0.764 | 0.931 | 0.013 | 1 | 0.342
MWKLPKWRNGRRRGFKIPRW [Cand-109, chemically synthesized candidate AMP predicted from marine biofilm bacteria] | – | – | – | – | – | – | – | 0 | 0.019 | 0.01 | 0.002 | 0.012 | 0.019 | 0.02 | 0.039
MCTRSCRPNLVKC [Cand-47, chemically synthesized candidate AMP predicted from marine biofilm bacteria] | – | – | – | – | – | – | – | 1 | 0.835 | 0.895 | 1 | 1 | 1 | 1 | 1
MSPRICSVISCLMKLRC [Cand-11, chemically synthesized candidate AMP predicted from marine biofilm bacteria] | – | – | – | – | – | – | – | 0.019 | 0.522 | 0.023 | 0.967 | 1 | 0.018 | 0.931 | 0.023
MLTTIAKSTKKCKPKSCCACSLYRC [Cand-216, chemically synthesized candidate AMP predicted from marine biofilm bacteria] | – | – | – | – | – | – | – | 0.86 | 0.556 | 1 | 0.832 | 0.845 | 0 | 0.978 | 0.018
MSRSLRNLLKYVWVKVKGE [Cand-217] | 25.740 | 2.490 | 2.604 | 4.447 | – | 9.600 | ≤ 32 | – | – | – | – | – | – | – | –
MKALRRFLSCKVCSHALN [Cand-160, chemically synthesized candidate AMP predicted from marine biofilm bacteria] | – | – | – | – | – | – | – | 0 | 0.072 | 0.001 | 0.406 | 0 | 0.001 | 0.638 | 0.442
